{
  "source": "patent US9782434B2",
  "about": "“Methods of treating or preventing inflammation and hypersensitivity with oxidative reductive potential water solution” (Oculus Innovative Sciences, Inc., priority 2006, dated 2017)",
  "key": {"[1]": {"tested_on": "B. atropheus spores, Pseudomonas aeruginosa, and Staphylococcus aureus", "assay": "Bacterial suspension assay, test organisms overall", "type": "cell-based", "conditions": "33 Units/ml; over the time periods tested", "experimental": "Dermacyn is a ready to use product, therefore performing dilutions during testing was not required.\nA purchased spore suspension of B. atropheus at 2.5×10^7/ml was used for testing. In addition fresh suspensions of Pseudomonas aeruginosa, and Staphylococcus aureus were prepared and measured using a spectrophotometer to ensure the titer was acceptable\n[…] of test substance was added to 100 ul of microbe suspension. The test mixture was held at 20° C. for the contact times of 20 seconds, 5 minutes, and 20 minutes. […] (entire mixture) was added to 9.0 ml of neutralizer for 20 minutes (this is the original neutralization tube or ONT) 1.0 ml of the neutralized test mixture was plated on Tryptic Soy Agar in duplicate for the 5 minute and 20 minute contact times. Additional dilutions and spread plates were used for the 20 second time point, to achieve countable plates.\nAll plates were incubated at 30° C.-35° C. for a total of 3 days and were evaluated after each day of incubation."}, "[2]": {"tested_on": "human diploid fibroblasts (HDFs)", "assay": "Cell viability, apoptosis and necrosis by flow cytometry", "type": "cell-based", "conditions": "880 mM", "experimental": "HP is known to be toxic to eukaryotic cells, increasing apoptosis and necrosis and reducing cellular viability. […] HDF cultures were obtained from three different foreskins, which were pooled and cryopreserved together for the purpose of this study. Only diploid cells were used for all experiments. […] Simultaneous analyses of these parameters were performed in the same cell populations by flow cytometry using: […] B) Annexin V-FITC; and C) Propidium iodide. FIG. 4A-4C disclose percentage values expressed as mean±SD (n=3)."}, "[3]": {"tested_on": "human diploid fibroblasts (HDFs)", "conditions": "30 min, 500 μM"}, "[4]": {"tested_on": "human cell cultures"}, "[5]": {"tested_on": "murine polychromatic erythrocytes", "source_text": "The mammalian in vivo micronucleus test is used for the identification of substances which cause damage to chromosomes or the mitotic apparatus of murine polychromatic erythrocytes. This damage results in the formation of “micronuclei,” intracellular structures containing lagging chromosome fragments or isolated whole chromosomes. […] All mice were observed immediately after injection for any adverse reactions. […] On day 3, all mice were weighed and terminated.\nThe femurs were excised from the terminated mice, the bone marrow was extracted, and duplicate smear preparations were performed for each mouse. The bone marrow slides for each animal were read at 40× magnification. The ratio of polychromatic erythrocytes (PCE) to normochromatic erythrocytes (NCE), an index of bone marrow toxicity, was determined for each mouse by counting a total of at least 200 erythrocytes. Then a minimum of 2000 scoreable PCE per mouse were evaluated for the incidence of micronucleated polychromatic erythrocytes. Statistical analysis of the data were done using the Mann and Whitney test (at 5% risk threshold) from a statistical software package (Statview 5.0®, SAS Institute Inc., USA)."}},
  "note": "Like-named read-outs stand apart in the source and are kept apart here. Bridge positions count the residues as written; N and C are the ends. Square brackets hold non-standard residues; d marks the D form. Peptide text beside a SMILES is read from it. * marks the point of attachment. Ileψ(thiazoline)Cys = CC[C@H](C)[C@H](N)C1=N[C@H](C(=O)*)CS1; dOrn = NCCC[C@@H](N)C(=O)O",
  "data": [
    {"smiles": "CC[C@H](C)[C@H](N)C1=N[C@H](C(=O)N[C@@H](CC(C)C)C(=O)N[C@H](CCC(=O)O)C(=O)N[C@H](C(=O)N[C@H]2CCCCNC(=O)[C@H](CC(N)=O)NC(=O)[C@@H](CC(=O)O)NC(=O)[C@H](Cc3cnc[nH]3)NC(=O)[C@@H](Cc3ccccc3)NC(=O)[C@H]([C@@H](C)CC)NC(=O)[C@@H](CCCN)NC2=O)[C@@H](C)CC)CS1", "note": "[Bacitracin] ({Ileψ(thiazoline)Cys}-L[dE]IK[dOrn]I[dF]H[dD]N; lactam 4-C)", "values": [
      {"measurement": "lowering of bacterial or spore populations", "setting": "[1]", "value": "no evidence of lowering the bacterial or spore populations"}
    ]},
    {"smiles": "OO", "note": "[HP, hydrogen peroxide]", "values": [
      {"measurement": "Cell viability (7AAD)", "setting": "[2]; 5 min", "value": 55, "unit": "%"},
      {"measurement": "necrosis, cells incorporating propidium iodide", "setting": "[2]; 5 min", "value": 20, "unit": "%"},
      {"measurement": "Cell viability (7AAD)", "setting": "[2]; 30 min", "value": 5, "unit": "%"},
      {"measurement": "necrosis, cells incorporating propidium iodide", "setting": "[2]; 30 min", "value": 75, "unit": "%"},
      {"measurement": "increase in number of 8-OHdG adducts relative to control-treated or ORP water solution-treated cells", "setting": "[3]", "value": "about 25 fold"},
      {"measurement": "GAPDH RT-PCR product", "setting": "[4]", "value": "little if any GAPDH RT-PCR product"},
      {"measurement": "RNA degradation, denaturing gel electrophoresis", "setting": "[4]", "value": "significant RNA degradation"}
    ]},
    {"smiles": "O=P1(N(CCCl)CCCl)NCCCO1", "note": "(centres unmarked) [cyclophosphamide]", "values": [
      {"measurement": "PCE/NCE ratio", "setting": "[5]; females, negative controls 1.02", "value": 0.73},
      {"measurement": "number of polychromatic erythrocytes bearing micronuclei", "setting": "[5]; males, negative controls 0.6", "value": 11.0},
      {"measurement": "PCE/NCE ratio", "setting": "[5]; males, negative controls 0.90", "value": 0.77}
    ]}
  ]
}
